Test results as given in patent EP0103552B1, “Novel derivatives of guanine” (priority 1982, dated 1984).

Experiments:
[1] = cellular toxicity, reduction in cell growth; assay type: cell-based, Green Monkey; conditions: monkey, vero cells; Conc. 100 µM; after 48 h of incubation; read-out: Percent reduction in growth of Vero cells, determined as cell number
Experimental: (§1) The method used has been described by Stenberg (Biochemical Pharmacology, Vol. 30 (1980), 1005-1008). […] However, at this concentration, herpes virus multiplication was inhibited to more than 90% (see Table 1). Table 2. Cellular toxicity of VIS 590 expressed as percent reduction in cell growth after 48 h of incubation.

[2] = system: Vero cells; experiment: cellular toxicity, reduction in cell growth; assay type: cell-based, Green Monkey; conditions: at 100 µM
Experimental: as §1

[3] = system: herpes simplex type 1; experiment: plaque reduction assay, inhibition of virus multiplication in cell cultures; assay type: cell-based; conditions: herpes simplex type 1 plaque on Vero cell mono-layers
Experimental: The inhibition of herpesvirus by VIS 590 and VSA 687 has been measured as plaque reduction according to the following procedure. The plaque reduction assay for herpes simplex type 1 was performed on Vero (Green Monkey Kidney) cells as described by Ejercito et al., J. Gen. Virol. 2 (1968) 357. Monolayers on 5 cm petri dishes were used and after virus adsorption the compounds to be tested were added to-the medium.

Structure (SMILES) | inhibition at 48 h, 100 µM [1] [%] | effect on cell growth (in words) [2] | Inhibition % ([3]; Conc. 10 μ) [%] | Inhibition % ([3]; Conc. 35 μ) [%]
Nc1nc2c(ncn2CC(=O)CCO)c(=O)[nH]1 [VIS 590, 9-(2-oxo-4-hydroxybutyl)guanine] | 0 | did not affect cell growth | 35 | –
Nc1nc2c(ncn2CC(=O)C(O)CO)c(=O)[nH]1 (stereo not shown) [VSA 687, 9-(2-oxo-3,4-dihydroxybutyl)guanine] | – | – | – | >90
